Measurements taken from patent EP3002287B1, “Thiochromeno[2,3-c]quinolin-12-one derivatives and their use as topoisomerase inhibitors” (National Defense Medical Center, priority 2014, dated 2016).

Key:
[1] = test system: SK-MEL-28; test: NCI in vitro 60-cell drug screen (SRB assay); format: cell-based; conditions: SK-MEL-28 (Melanoma); 10^-5 molar concentration; 48 hours
[2] = test system: ACHN; test: NCI in vitro 60-cell drug screen (SRB assay); format: cell-based; conditions: ACHN (Renal cancer); 10^-5 molar concentration; 48 hours
[3] = test system: HCT-15; test: NCI in vitro 60-cell drug screen (SRB assay); format: cell-based; conditions: HCT-15 (Colon cancer); 10^-5 molar concentration; 48 hours
[4] = test system: KM12; test: NCI in vitro 60-cell drug screen (SRB assay); format: cell-based; conditions: KM12 (Colon cancer); 10^-5 molar concentration; 48 hours
[5] = test system: TK-10; test: NCI in vitro 60-cell drug screen (SRB assay); format: cell-based; conditions: TK-10 (Renal cancer); 10^-5 molar concentration; 48 hours
[6] = test system: HT29; test: NCI in vitro 60-cell drug screen (SRB assay); format: cell-based; conditions: HT29 (Colon cancer); 10^-5 molar concentration; 48 hours
[7] = test system: U251; test: NCI in vitro 60-cell drug screen (SRB assay); format: cell-based; conditions: U251 (CNS cancer); 10^-5 molar concentration; 48 hours
[8] = test system: OVCAR-3; test: NCI in vitro 60-cell drug screen (SRB assay); format: cell-based; conditions: OVCAR-3 (Ovarian cancer); 10^-5 molar concentration; 48 hours
[9] = test system: SF-295; test: NCI in vitro 60-cell drug screen (SRB assay); format: cell-based; conditions: SF-295 (CNS cancer); 10^-5 molar concentration; 48 hours
[10] = test system: T-47D; test: NCI in vitro 60-cell drug screen (SRB assay); format: cell-based; conditions: T-47D (Breast cancer); 10^-5 molar concentration; 48 hours
[11] = test system: HOP-92; test: NCI in vitro 60-cell drug screen (SRB assay); format: cell-based; conditions: HOP-92 (Non-small cell lung cancer); 10^-5 molar concentration; 48 hours
[12] = test system: SK-MEL-2; test: NCI in vitro 60-cell drug screen (SRB assay); format: cell-based; conditions: SK-MEL-2 (Melanoma); 10^-5 molar concentration; 48 hours
[13] = test system: A498; test: NCI in vitro 60-cell drug screen (SRB assay); format: cell-based; conditions: A498 (Renal cancer); 10^-5 molar concentration; 48 hours
[14] = test system: CCRF-CEM; test: NCI in vitro 60-cell drug screen (SRB assay); format: cell-based; conditions: CCRF-CEM (Leukemia); 10^-5 molar concentration; 48 hours
[15] = test system: UACC-62; test: NCI in vitro 60-cell drug screen (SRB assay); format: cell-based; conditions: UACC-62 (Melanoma); 10^-5 molar concentration; 48 hours
[16] = test system: MDA-MB-435; test: NCI in vitro 60-cell drug screen (SRB assay); format: cell-based; conditions: MDA-MB-435 (Melanoma); 10^-5 molar concentration; 48 hours
[17] = test system: MALME-3M; test: NCI in vitro 60-cell drug screen (SRB assay); format: cell-based; conditions: MALME-3M (Melanoma); 10^-5 molar concentration; 48 hours
[18] = test system: OVCAR-4; test: NCI in vitro 60-cell drug screen (SRB assay); format: cell-based; conditions: OVCAR-4 (Ovarian cancer); 10^-5 molar concentration; 48 hours
[19] = test system: NCI/ADR-RES; test: NCI in vitro 60-cell drug screen (SRB assay); format: cell-based; conditions: NCI/ADR-RES (Ovarian cancer); 10^-5 molar concentration; 48 hours
[20] = test system: PC-3; test: MTT assay for cell cytotoxicity; format: cell-based, human; conditions: Homo sapiens, 72 h, at least three independent experiments, read-out: MTT assay (IC50 ± SD) PC-3
[21] = test system: DU-145; test: MTT assay for cell cytotoxicity; format: cell-based, human; conditions: Homo sapiens, 72 h, at least three independent experiments, read-out: MTT assay (IC50 ± SD) DU-145
Outline: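 Seeded cells pre-incubated 24 h, then treated 72 h with 0.15–15 µM compound in RPMI-1640/5% FBS at 37 °C. MTT (1 mg/mL) added for 4 h, formazan dissolved in DMSO, absorbance at 560 nm; IC50 from mean of ≥3 independent experiments.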

[22] = test system: COLO 205; test: NCI in vitro 60-cell drug screen (SRB assay); format: cell-based; conditions: COLO 205 (Colon cancer); 10^-5 molar concentration; 48 hours
[23] = test system: HL-60(TB); test: NCI in vitro 60-cell drug screen (SRB assay); format: cell-based; conditions: HL-60(TB) (Leukemia); 10^-5 molar concentration; 48 hours
[24] = test system: 60 cell lines; test: NCI in vitro 60-cell drug screen (SRB assay), whole panel statistics; conditions: mean over the cell panel; 10^-5 molar concentration; 48 hours
[25] = test system: DU-145; test: NCI in vitro 60-cell drug screen (SRB assay); format: cell-based; conditions: DU-145 (Prostate cancer); 10^-5 molar concentration; 48 hours
[26] = test system: MDA-MB-486; test: NCI in vitro 60-cell drug screen (SRB assay); format: cell-based; conditions: MDA-MB-486 (Breast cancer); 10^-5 molar concentration; 48 hours
[27] = test system: IGROV1; test: NCI in vitro 60-cell drug screen (SRB assay); format: cell-based; conditions: IGROV1 (Ovarian cancer); 10^-5 molar concentration; 48 hours
[28] = test system: OVCAR-5; test: NCI in vitro 60-cell drug screen (SRB assay); format: cell-based; conditions: OVCAR-5 (Ovarian cancer); 10^-5 molar concentration; 48 hours

O=c1c2ccc(Cl)cc2sc2c(Cl)nc3ccccc3c12 [Compound 3, 6,9-Dichloro-12H-thiochromeno[2,3-c]quinolin-12-one]
Growth percent [1]: 101.80% | Growth percent [2]: 86.84% | Growth percent [3]: 102.28% | Growth percent [4]: 111.27% | Growth percent [5]: 108.56% | Growth percent [6]: 99.73% | Growth percent [7]: 101.71% | Growth percent [8]: 111.27% | Growth percent [9]: 90.26% | Growth percent [10]: 110.10% | Growth percent [11]: 90.83% | Growth percent [12]: 95.54% | Growth percent [13]: 106.06% | Growth percent [14]: 93.12% | Growth percent [15]: 89.69% | Growth percent [16]: 100.64% | Growth percent [17]: 95.87% | Growth percent [18]: 87.91% | Growth percent [19]: 102.80% | IC50 [20]: > 15 µM | IC50 [21]: > 15 µM | Growth percent [22]: 112.15% | Growth percent [23]: 99.34% | Growth percent, Mean [24]: 98.11% | Growth percent [25]: 114.27% | Growth percent [26]: 98.57% | Growth percent [27]: 96.06% | Growth percent [28]: 100.07%

O=c1c2cc(Cl)ccc2sc2c(N3CCN(Cc4ccccc4)CC3)nc3ccccc3c12 [Compound 11, 6-(4-Benzylpiperazin-1-yl)-10-chloro-12H-thiochromeno[2,3-c]q uinolin-12-one]
Growth percent [1]: 104.19% | Growth percent [2]: 96.39% | Growth percent [3]: 94.51% | Growth percent [4]: 107.75% | Growth percent [5]: 124.99% | Growth percent [6]: 102.71% | Growth percent [7]: 96.69% | Growth percent [8]: 101.69% | Growth percent [9]: 94.34% | Growth percent [10]: 89.22% | Growth percent [11]: 70.17% | Growth percent [12]: 107.37% | Growth percent [13]: 94.17% | Growth percent [14]: 95.42% | Growth percent [15]: 96.00% | Growth percent [16]: 96.99% | Growth percent [17]: 112.36% | Growth percent [18]: 102.43% | Growth percent [19]: 98.31% | IC50 [20]: > 15 µM | IC50 [21]: > 15 µM | Growth percent [22]: 105.64% | Growth percent [23]: 100.96% | Growth percent, Mean [24]: 96.19% | Growth percent [25]: 111.61% | Growth percent [26]: 98.53% | Growth percent [27]: 93.49% | Growth percent [28]: 111.92%

O=c1c2cc(Cl)ccc2sc2c(N3CCOCC3)nc3ccccc3c12 [Compound 13, 10-Chloro-6-morpholino-12H-thiochromeno[2,3-c]quinolin-12-one]
Growth percent [1]: 111.28% | Growth percent [2]: 82.54% | Growth percent [3]: 93.81% | Growth percent [4]: 88.68% | Growth percent [5]: 86.24% | Growth percent [6]: 83.73% | Growth percent [7]: 98.58% | Growth percent [8]: 96.54% | Growth percent [9]: 93.62% | Growth percent [10]: 80.00% | Growth percent [11]: 60.43% | Growth percent [12]: 98.77% | Growth percent [13]: 94.15% | Growth percent [14]: 88.02% | Growth percent [15]: 87.86% | Growth percent [16]: 102.07% | Growth percent [17]: 118.84% | Growth percent [18]: 96.75% | Growth percent [19]: 98.16% | IC50 [20]: > 15 µM | IC50 [21]: > 15 µM | Growth percent [22]: 99.24% | Growth percent [23]: 93.38% | Growth percent, Mean [24]: 90.52% | Growth percent [25]: 110.81% | Growth percent [26]: 39.67% | Growth percent [27]: 80.90% | Growth percent [28]: 95.97%
